Data as given in ChEMBL document CHEMBL1156195, “Antimicrobial selaginellin derivatives from Selaginella pulvinata” (Bioorg Med Chem Lett, 2010).
Converted amounts (≈) assume the structure as drawn. The source made the active and inactive calls. The rule behind the calls is not given here.

Assays:
Candida albicans = assay: Antifungal activity against Candida albicans; assay type: functional, organism-based
Staphylococcus aureus = assay: Antibacterial activity against Staphylococcus aureus; assay type: functional, organism-based

Row | IC50 (Staphylococcus aureus) | MIC (Staphylococcus aureus) | Structure (SMILES) | IC50 (Candida albicans) [µg/mL]
1 |  |  | Clc1ccc(COC(Cn2ccnc2)c2ccc(Cl)cc2Cl)c(Cl)c1.O=[N+]([O-])O (centres undefined) [MICONAZOLE NITRATE] | < 1.2
2 | Not Active | inactive | CCOc1ccc(C(=C2C=CC(=O)C=C2)c2c(-c3ccc(O)cc3)ccc(CO)c2C#Cc2ccc(O)cc2)cc1 [SELAGINELLIN D] | 5.3 (≈ 9.8 µM)
